Where two headings read alike, the source gives them in different places.
What was measured:
[1] = tested on: Neutrophils; assay: High throughput transmigration assay (Example 9), chemorepulsion; type: cell-based, human
[2] = tested on: Eo-HL60 (HL-60 clone 15 differentiated to eosinophil-like phenotype); assay: Trans-well migration assay (Example 1), net migratory response; type: cell-based, human; details: net observed response
[3] = tested on: Monocyte; assay: as above
Protocol: (§1) Prior to beginning the assay 0.5% Fetal Calf Serum (FCS) in Iscove's Modified Dulbecco's Medium (IMDM) is prepared and stored on ice (Assay Medium). Migratory cells at a concentration of 2×10^7 cells/ml are suspended in Assay Medium. T-cells isolated from donor blood or buffy coats are allowed to rest overnight in Assay Medium at 37° C. in 5% CO2. Neutrophils, monocytes and B cells are utilized as soon as they are purified from donor blood or other source of human origin. Four serial (10×) dilutions of the ligand are then prepared in Assay Medium (normally 10 μg/ml to 0.01 μg/ml).
(§2) Plates are removed from the packaging, leaving the membrane behind and intact. The membrane is set aside. Into each well is pipetted 31 μl of solution. For media controls and fugetaxis (chemorepellent) samples, Assay Medium is used. For chemoattraction samples, the appropriate dilution of agent in assay medium is used.
(§3) Using a sterile needle, all small bubbles present in each well are popped and the membrane is carefully placed onto the plate, starting at one side and slowly lowering the other edge onto the plate.
(§4) Then 29 μl is pipetted into each circle imprinted on the polycarbonate or polyester membrane. For media controls and chemoattraction samples, Assay Medium is used. For fugetaxis (chemorepellent) samples, the appropriate dilution of ligand in assay medium is used.
(§5) To each 29 uL aliquot above is added 2 μl of cells (40,000 cells). It is important to ensure that before beginning the cells are well suspended and that they are mixed. This mixing can be accomplished by agitating the tube between each addition.
(§6) The plate is then covered with the supplied lid and incubated 1-3 hours in a humidified incubator at 37° C. in 5% CO2. Following the incubation period, the liquid from the top of the plate is removed with a tissue or similar blotting material (e.g. a Kimwipe). The membrane is carefully removed from the top of the plate and discarded. […] Using a multichannel pipettor, each well of the microplate is rinsed with 25 μl Phosphate Buffered Saline (Mediatech #21-040-CV) and transferred to the same wells in the white microplate. Using a multichannel pipettor, 50 μl CellTiter-Glo Luminescent Cell Viability Assay (Promega #G7572) is added to each well and mixed.
(§7) The plate is read using the Perkin Elmer Victor^3V plate reader using the Large Aperture Luminescence setting at 8 mm height above the plate with a dwell time of 1 s to quantify the number of migrated cells.
(§8) The results reported reflect the net observed migratory response of the cells to the ligand and are not based on the definition of unimodal fugetaxins.

[4] = tested on: B-cell; assay: as above; details: net observed response
Protocol: as §1, §2, §3, §4, §5, §6, §7, §8

[5] = Neutrophils, mean of three donors at concentration of highest activity, range 0.00125-1.25 μM
[6] = neutrophils, 0.00125 μM, one donor, triplicate, ± SD
[7] = neutrophils, 0.0125 μM, one donor, triplicate, ± SD
[8] = neutrophils, 0.125 μM, one donor, triplicate, ± SD
[9] = neutrophils, 1.25 μM, one donor, triplicate, ± SD
[10] = Monocyte, net observed response

Molecule | Migratory Response [2] | Migratory Response [3, 10] | Migratory Response [4] | further results
Galectin-1: carbohydrate binding protein (galectin), full-length, purchased; accession P09382 | chemorepulsion | chemorepulsion | – | Repellent Index [1, 5]: 2.3; Repellent Index [1, 6]: 0.80 ± 0.08; Repellent Index [1, 7]: 0.96 ± 0.22; Repellent Index [1, 8]: 1.05 ± 0.14; Repellent Index [1, 9]: 3.70 ± 0.29
Lipid A Diphos [reference compound] | chemorepulsion | – | – | –
MCP-4: chemokine | – | chemorepulsion | chemorepulsion | –
HSP40 Human: heat shock protein; accession BAA08495 | chemorepulsion | chemorepulsion | – | Repellent Index [1, 5]: 1.4
N-acetylmuramyl (MDP) [reference compound] | chemorepulsion | – | – | Migratory Response [3]: chemorepulsion
COc1cc(CNC(=O)CCCC/C=C/C(C)C)ccc1O [Capsaicin, reference compound] | – | – | chemorepulsion | –
Poly(I:C) [reference compound] | chemorepulsion | chemorepulsion | chemorepulsion | Repellent Index ([1]; Neutrophils, mean of three donors at concentration of highest activity, range 0.01-10 μg/ml): 1.4
CC(C)=CCC[C@]1(C)[C@@H](CC=C(C)C)C[C@@]2(CC=C(C)C)C(=O)[C@]1(C(=O)C(C)C)C(=O)C(CC=C(C)C)=C2O [Hyperforin, reference compound] | – | – | – | Migratory Response [3]: chemorepulsion
Eotaxin: chemokine | – | – | chemorepulsion | –
CC[C@H]1OC(=O)[C@H](C)[C@@H](O[C@H]2C[C@@](C)(OC)[C@@H](O)[C@H](C)O2)[C@H](C)[C@@H](O[C@@H]2O[C@H](C)C[C@H](N(C)C)[C@H]2O)[C@](C)(O)C[C@@H](C)C(=O)[C@H](C)[C@@H](O)[C@]1(C)O [Erythromycin, reference compound] | – | – | – | Repellent Index [1, 5]: 4.8; Repellent Index [1, 6]: 1.75 ± 0.40; Repellent Index [1, 7]: 2.29 ± 1.61; Repellent Index [1, 8]: 3.29 ± 1.11; Repellent Index [1, 9]: 6.12 ± 2.53
O=c1c(-c2ccc(O)cc2)coc2cc(O)cc(O)c12 [Genistein, reference compound] | – | – | chemorepulsion | Repellent Index [1, 5]: 1.3
Tropomyosin | – | – | – | Repellent Index [1, 5]: 1.7; Repellent Index [1, 6]: 2.57 ± 0.73; Repellent Index [1, 7]: 2.26 ± 0.86; Repellent Index [1, 8]: 2.23 ± 0.68; Repellent Index [1, 9]: 1.67 ± 0.16
Galectin-7: full-length galectin protein, purchased | – | – | chemorepulsion | –
O.O.O=c1c(O)c(-c2ccc(O)c(O)c2)oc2cc(O)cc(O)c12 [Quercetin dihydrate, reference compound] | chemorepulsion | – | chemorepulsion | –
CXCL2: chemokine | – | – | – | Repellent Index [1, 5]: 1.6
Concanavalin A | – | chemorepulsion | chemorepulsion | –

Molecule | Migratory Response [2] | Migratory Response [3, 10] | Migratory Response [4] | further results
CC(=O)O[C@H]1C(=O)[C@@]2(C)[C@H]([C@H](OC(=O)c3ccccc3)[C@]3(O)C[C@H](OC(=O)[C@H](O)[C@@H](NC(=O)c4ccccc4)c4ccccc4)C(C)=C1C3(C)C)[C@]1(OC(C)=O)CO[C@@H]1C[C@@H]2O [Paclitaxel, reference compound] | chemorepulsion | chemorepulsion | – | –
(−)-Epigallocatechin Gallate [EGCG ((−)-Epigallocatechin Gallate), reference compound] | – | – | chemorepulsion | –
Oc1ccc(C=Cc2cc(O)cc(O)c2)cc1 [Resveratrol, reference compound] | chemorepulsion | – | chemorepulsion | Repellent Index [1, 5]: 1.4; Repellent Index [1, 6]: 2.65 ± 0.29; Repellent Index [1, 7]: 2.80 ± 0.32; Repellent Index [1, 8]: 2.05 ± 0.28; Repellent Index [1, 9]: 1.32 ± 0.50
Antithrombin III | – | – | – | Repellent Index ([1]; Neutrophils, mean of three donors at concentration of highest activity, range 0.000573-0.573 μM): 2.2; Repellent Index ([1]; neutrophils, 0.000573 μM, one donor, triplicate, ± SD): 1.08 ± 0.36; Repellent Index ([1]; neutrophils, 0.00573 μM, one donor, triplicate, ± SD): 1.63 ± 0.67; Repellent Index ([1]; neutrophils, 0.0573 μM, one donor, triplicate, ± SD): 3.17 ± 0.98; Repellent Index ([1]; neutrophils, 0.573 μM, one donor, triplicate, ± SD): 5.55 ± 1.71
MDC: chemokine (protein, UniProt O00626 25-93, looked up) C-C motif chemokine 22: GPYGANMEDSVCCRDYVRYRLPLRVVKHFYWTSDSCPRPGVVLLTFRDKEICADPRVPWVKMILNKLSQ | – | – | chemorepulsion | –
Eotaxin-3: chemokine (protein, UniProt Q9Y258 24-94, looked up) C-C motif chemokine 26: TRGSDISKTCCFQYSHKPLPWTWVRSYEFTSNSCSQRAVIFTTKRGKKVCTHPRKKWVQKYISLLKTPKQL | – | chemorepulsion | chemorepulsion | –
RANTES: chemokine (protein, UniProt P13501 24-91, looked up) C-C motif chemokine 5: SPYSSDTTPCCFAYIARPLPRAHIKEYFYTSGKCSNPAVVFVTRKNRQVCANPEKKWVREYINSLEMS | – | chemorepulsion | chemorepulsion | –
Eotaxin-2: chemokine (protein, UniProt O00175 27-119, looked up) C-C motif chemokine 24: VVIPSPCCMFFVSKRIPENRVVSYQLSSRSTCLKAGVIFTTKKGQQFCGDPKQEWVQRYMKNLDAKQKKASPRARAVAVKGPVQRYPGNQTTC | – | chemorepulsion | chemorepulsion | –
Leukotactin-1: chemokine (protein, UniProt Q16663 22-113, looked up) C-C motif chemokine 15: QFTNDAETELMMSKLPLENPVVLNSFHFAADCCTSYISQSIPCSLMKSYFETSSECSKPGVIFLTKKGRQVCAKPSGPGVQDCMKKLKPYSI | – | – | chemorepulsion | –
HSP32 Rat: heat shock protein; accession P06762/AAH91164 (protein, UniProt P06762 1-289, looked up) Heme oxygenase 1: MERPQLDSMSQDLSEALKEATKEVHIRAENSEFMRNFQKGQVSREGFKLVMASLYHIYTALEEEIERNKQNPVYAPLYFPEELHRRAALEQDMAFWYGPHWQEAIPYTPATQHYVKRLHEVGGTHPELLVAHAYTRYLGDLSGGQVLKKIAQKAMALPSSGEGLAFFTFPSIDNPTKFKQLYRARMNTLEMTPEVKHRVTEEAKTAFLLNIELFEELQALLTEEHKDQSPSQTEFLRQRPASLVQDTTSAETPRGKSQISTSSSQTPLLRWVLTLSFLLATVAVGIYAM | chemorepulsion | – | – | Repellent Index [1, 5]: 1.8
MIP-1 beta: chemokine (protein, UniProt P13236 24-92, looked up) C-C motif chemokine 4: APMGSDPPTACCFSYTARKLPRNFVVDYYETSSLCSQPAVVFQTKRSKQVCADPSESWVQEYVYDLELN | – | chemorepulsion | chemorepulsion | –
Cathespin G, Human Neutrophil: Cathespin G, Human Neutrophil (protein, UniProt P08311 21-244, looked up) Cathepsin G: IIGGRESRPHSRPYMAYLQIQSPAGQSRCGGFLVREDFVLTAAHCWGSNINVTLGAHNIQRRENTQQHITARRAIRHPQYNQRTIQNDIMLLQLSRRVRRNRNVNPVALPRAQEGLRPGTLCTVAGWGRVSMRRGTDTLREVQLRVQRDRQCLRIFGSYDPRRQICVGDRRERKAAFKGDSGGPLLCNNVAHGIVSYGKSSGVPPEVFTRVSSFLPWIRTTMRS | chemorepulsion | chemorepulsion | chemorepulsion | –
Fractalkine: chemokine (protein, UniProt P78423 25-397, looked up) Fractalkine: QHHGVTKCNITCSKMTSKIPVALLIHYQQNQASCGKRAIILETRQHRLFCADPKEQWVKDAMQHLDRQAAALTRNGGTFEKQIGEVKPRTTPAAGGMDESVVLEPEATGESSSLEPTPSSQEAQRALGTSPELPTGVTGSSGTRLPPTPKAQDGGPVGTELFRVPPVSTAATWQSSAPHQPGPSLWAEAKTSEAPSTQDPSTQASTASSPAPEENAPSEGQRVWGQGQSPRPENSLEREEMGPVPAHTDAFQDWGPGSMAHVSVVPVSSEGTPSREPVASGSWTPKAEEPIHATMDPQRLGVLITPVPDAQAATRRQAVGLLAFLGLLFCLGVAMFTYQSLQGCPRKMAGEMAEGLRYIPRSCGSNSYVLVPV | – | chemorepulsion | chemorepulsion | –
HCC-1: chemokine (protein, UniProt Q16627 20-93, looked up) C-C motif chemokine 14: TKTESSSRGPYHPSECCFTYTTYKIPRQRIMDYYETNSQCSKPGIVFITKRGHSVCTNPSDKWVQDYIKDMKEN | – | – | chemorepulsion | –
SLC: chemokine (protein, UniProt O00585 24-134, looked up) C-C motif chemokine 21: SDGGAQDCCLKYSQRKIPAKVVRSYRKQEPSLGCSIPAILFLPRKRSQAELCADPKELWVQQLMQHLDKTPSPQKPAQGCRKDRGASKTGKKGKGSKGCKRTERSQTPKGP | – | chemorepulsion | – | –
TARC: chemokine (protein, UniProt Q92583 24-94, looked up) C-C motif chemokine 17: ARGTNVGRECCLEYFKGAIPLRKLKTWYQTSEDCSRDAIVFVTVQGRAICSDPNNKRVKNAVKYLQSLERS | – | – | chemorepulsion | –

Reference: patent US9617330B2, “Chemorepulsion of cells” (Celtaxsys, Inc., priority 2006, dated 2017)
